Converted amounts (≈) assume the structure as drawn.
Legend:
Format in all cases: cell-based
C. freundii DSM-30039 = test: MIC, microbroth dilution susceptibility assay; details: Citrobacter freundii, DSM30039; large panel, Table 2a
Method in brief: (§1)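 Overnight cultures were diluted in cation-adjusted Müller-Hinton broth to 10^4-10^6 cfu/mL and grown with serially diluted compound (from DMSO stocks) for approx. 16 h at 30-37° C. MIC is the lowest concentration with no visible bacterial growth.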

S. aureus ATCC-29213 = test: MIC, microbroth dilution susceptibility assay; details: Staphylococcus aureus, ATCC29213; large panel, Table 2a
Method in brief: as §1

P. aeruginosa DSM-24600 = test: MIC, microbroth dilution susceptibility assay; details: Pseudomonas aeruginosa, DSM24600; large panel, Table 2a
Method in brief: as §1

S. aureus Newman = test: MIC, microbroth dilution susceptibility assay; details: Staphylococcus aureus, NEWMAN; small panel, Tables 1a/1b; read-out: MIC S. aureus Newman
Method in brief: as §1

K. pneumoniae DSM-30104 = test: MIC, microbroth dilution susceptibility assay; details: Klebsiella pneumoniae, DSM30104; large panel, Table 2a
Method in brief: as §1

E. cloacae DSM-30054 = test: MIC, microbroth dilution susceptibility assay; details: Enterobacter cloacae, DSM30054; large panel, Table 2a
Method in brief: as §1

P. aeruginosa DSM-46316 = test: MIC, microbroth dilution susceptibility assay; details: Pseudomonas aeruginosa, DSM46316; large panel, Table 2a
Method in brief: as §1

E. coli WT DSM-1116 = test: MIC, microbroth dilution susceptibility assay; details: Escherichia coli, DSM1116; small panel, Tables 1a/1b; no visual growth after approx. 16 h; read-out: MIC E. coli WT DSM-1116
Method in brief: as §1

E. aerogenes DSM-30053 = test: MIC, microbroth dilution susceptibility assay; details: Klebsiella aerogenes, DSM30053; large panel, Table 2a
Method in brief: as §1

P. mirabilis DSM-2140 = test: MIC, microbroth dilution susceptibility assay; details: Proteus mirabilis, DSM2140; large panel, Table 2a
Method in brief: as §1

S. epidermidis DSM-28765 = test: MIC, microbroth dilution susceptibility assay; details: Staphylococcus epidermidis, DSM28765; large panel, Table 2a
Method in brief: as §1

E. faecalis ATCC-29212 = test: MIC, microbroth dilution susceptibility assay; details: Enterococcus faecalis, ATCC29212; large panel, Table 2a; TSB
Method in brief: as §1

S. marcescens DSM-30121 = test: MIC, microbroth dilution susceptibility assay; details: Serratia marcescens, DSM30121; large panel, Table 2a
Method in brief: as §1

A. baumannii DSM-30008 = test: MIC, microbroth dilution susceptibility assay; details: Acinetobacter baumannii, DSM30008; large panel, Table 2a
Method in brief: as §1

E. coli WT = test: MIC, microbroth dilution susceptibility assay; details: Escherichia coli
Method in brief: as §1

P. aeruginosa WT PA14 = test: MIC, microbroth dilution susceptibility assay; details: Pseudomonas aeruginosa, PA14, small panel, Tables 1a/1b; read-out: MIC P. aeruginosa WT PA14
Method in brief: as §1

S. pneumoniae DSM-20566 = test: MIC, microbroth dilution susceptibility assay; details: Streptococcus pneumoniae, DSM20566; large panel, Table 2a; TSB
Method in brief: as §1

P. vulgaris DSM-2140 = test: MIC, microbroth dilution susceptibility assay; details: Proteus vulgaris, DSM2140; large panel, Table 2a
Method in brief: as §1

E. coli ΔtolC = test: microbe, parasite or virus in culture; details: Escherichia coli, 16 h, read-out: MIC E. coli ΔtolC, small panel, Tables 1a/1b; no visual growth after approx. 16 h
Method in brief: as §1

[1] = system: E. coli WT-3 [gyrA(S83L,D87G)]; test: microbe, parasite or virus in culture; details: Escherichia coli, read-out: MIC E. coli WT-3 [gyrA(S83L,D87G)]
Method in brief: as §1

P. aeruginosa ΔmexAB = test: microbe, parasite or virus in culture; details: Pseudomonas aeruginosa, 16 h, read-out: MIC P. aeruginosa ΔmexAB, efflux-deficient strain; small panel, Tables 1a/1b
Method in brief: as §1

[2] = system: E. coli WT-III [marRΔ74bp]; details: fluoroquinolone-resistant mutant; Table 2a
Experimental: (§2) Cystobactamid derivatives synthesized were tested against relevant Gram negative and positive bacteria of clinical interest. Experimental procedures used for the biological characterization of the compounds are the same as previously described in WO 2016/082934.
(§3) Bacterial strains used in susceptibility assays (minimum inhibitory concentration, MIC) were either part of our internal strain collection or purchased from the German Collection of Microorganisms and Cell Cultures (Deutsche Sammlung von Mikroorganismen und Zellkulturen, DSMZ) and the American Type Culture Collection (ATCC). The susceptible E. coli strain (WT) and fluoroquinolone-resistant mutants E. coli WT-3 and WT-III were kindly provided by Prof Dr. P. Heisig, Pharmaceutical Biology and Microbiology, University of Hamburg, Germany. The efflux-deficient strain P. aeruginosa ΔmexAB was kindly provided by Prof Dr. S. Häußler, Institute for Molecular Bacteriology, TWINCORE, Hannover, Germany. All compounds were prepared as DMSO stocks and MIC values were determined in standard microbroth dilution assays in 96-well MTPs as described in Baumann et al., Angew Chem Int Ed Engl. 2014; 53(52):14605-9. In brief, overnight cultures of bacteria were diluted in either tryptic soy broth (TSB: 1.7% peptone casein, 0.3% peptone soymeal, 0.25% glucose, 0.5% NaCl, 0.25% K2HPO4; pH 7.3; S. pneumoniae and E. faecalis) or cation-adjusted Müller-Hinton Broth (BBL™, BD; all other bacteria) and adjusted to 10^4-10^6 cfu/mL. Bacteria were grown in the presence of the derivatives in serial dilution for approx. 16 h at 30-37° C. MIC values were determined and were defined as the antibiotic concentration at which no visual growth of bacteria was observed.

C. freundii = test: MIC, microbroth dilution susceptibility assay (Table 2b); details: Citrobacter freundii, larger panel
Experimental: as §2, §3

P. vulgaris = test: as above; details: Proteus vulgaris, larger panel
Experimental: as §2, §3

K. pneumoniae = test: as above; details: Klebsiella pneumoniae, larger panel
Experimental: as §2, §3

P. mirabilis = test: as above; details: Proteus mirabilis, larger panel
Experimental: as §2, §3

E. cloacae = test: as above; details: Enterobacter cloacae, larger panel
Experimental: as §2, §3

S. epidermidis = test: as above; details: Staphylococcus epidermidis, larger panel
Experimental: as §2, §3

S. marcescens = test: as above; details: Serratia marcescens, larger panel
Experimental: as §2, §3

E. faecalis = test: as above; details: Enterococcus faecalis, larger panel
Experimental: as §2, §3

E. aerogenes = test: as above; details: Klebsiella aerogenes, larger panel
Experimental: as §2, §3

P. aeruginosa ESBL 1 = test: as above; details: Pseudomonas aeruginosa, ESBL1, larger panel
Experimental: as §2, §3

P. aeruginosa ESBL 2 = test: as above; details: Pseudomonas aeruginosa, ESBL2, larger panel
Experimental: as §2, §3

A. baumannii = test: as above; details: Acinetobacter baumannii, larger panel
Experimental: as §2, §3

Row | SMILES | MIC (C. freundii DSM-30039) | MIC (S. aureus ATCC-29213) | MIC (P. aeruginosa DSM-24600) | MIC (S. aureus Newman) | MIC (K. pneumoniae DSM-30104) | MIC (E. cloacae DSM-30054) | MIC (P. aeruginosa DSM-46316) | MIC (E. coli WT DSM-1116) | MIC (E. aerogenes DSM-30053) | MIC (P. mirabilis DSM-2140) | MIC (S. epidermidis DSM-28765) | MIC (E. faecalis ATCC-29212) | MIC (S. marcescens DSM-30121) | MIC (A. baumannii DSM-30008) | MIC (E. coli WT; large panel, Table 2a) | MIC (P. aeruginosa WT PA14) | MIC (S. pneumoniae DSM-20566) | MIC (P. vulgaris DSM-2140) | MIC (E. coli ΔtolC) | MIC [1] | other results
1 | C/C(=C\c1ccc(O)cc1)C(=O)Nc1ccc(C(=O)N[C@@H](CC(N)=O)C(=O)Nc2ccc(C(=O)Nc3ccc(C(=O)Nc4ccc(C(=O)O)cc4)c(O)c3OC(C)C)cc2)cc1 [Compound 53, (S,E)-4-(4-(4-(4-amino-2-(4-(3-(4-hydroxyphenyl)-2-methylacrylamido)benzamido)-4-oxobutanamido)benzamido)-2-hydroxy-3-isopropoxybenzamido)benzoic acid] | 0.13 µg/mL (≈ 0.154 µM) | 0.5 µg/mL (≈ 0.593 µM) | > 64 µg/mL | 0.25 µg/mL (≈ 0.297 µM) | > 64 µg/mL | > 64 µg/mL | 2 µg/mL (≈ 2.37 µM) | 0.25 µg/mL (≈ 0.297 µM) | 1 µg/mL (≈ 1.19 µM) | 2 µg/mL (≈ 2.37 µM) | 0.25 µg/mL (≈ 0.297 µM) | 0.5 µg/mL (≈ 0.593 µM) | 64 µg/mL (≈ 75.9 µM) | 0.25 µg/mL (≈ 0.297 µM) | 0.13 µg/mL (≈ 0.154 µM) | 1 µg/mL (≈ 1.19 µM) | 2 µg/mL (≈ 2.37 µM) | 0.13 µg/mL (≈ 0.154 µM) | 0.06 µg/mL (≈ 0.0712 µM) | 0.06 µg/mL (≈ 0.0712 µM) | MIC (P. aeruginosa ΔmexAB): 0.25 µg/mL (≈ 0.297 µM); MIC E. coli WT-III [marRΔ74bp] [2]: 0.06 µg/mL (≈ 0.0712 µM)
2 | CC(C)Oc1c(NC(=O)c2ccc(NC(=O)[C@H](CC(N)=O)NC(=O)c3ccc(NC(=O)c4ccc(C#N)cc4)cc3)cc2)ccc(C(=O)Nc2ccc(C(=O)O)cc2)c1O [Compound 44, (S)-4-(4-(4-(4-amino-2-(4-(4-cyanobenzamido)benzamido)-4-oxobutanamido)benzamido)-2-hydroxy-3-isopropoxybenzamido)benzoic acid] | < 0.03 µg/mL | 0.5 µg/mL (≈ 0.616 µM) | > 64 µg/mL | 0.25 µg/mL (≈ 0.308 µM) | 0.5 µg/mL (≈ 0.616 µM) | 0.25 µg/mL (≈ 0.308 µM) | 2 µg/mL (≈ 2.46 µM) | 0.5 µg/mL (≈ 0.616 µM) | 1 µg/mL (≈ 1.23 µM) | 64 µg/mL (≈ 78.8 µM) | 0.06 µg/mL (≈ 0.0739 µM) | 0.5 µg/mL (≈ 0.616 µM) | > 64 µg/mL | 1 µg/mL (≈ 1.23 µM) | 0.25 µg/mL (≈ 0.308 µM) | 2 µg/mL (≈ 2.46 µM) | 0.13 µg/mL (≈ 0.16 µM) | 0.25 µg/mL (≈ 0.308 µM) | 0.06 µg/mL (≈ 0.0739 µM) | 0.13 µg/mL (≈ 0.16 µM) | MIC (E. coli WT; larger panel, Table 2b): 0.25 µg/mL (≈ 0.308 µM); MIC (C. freundii): < 0.03 µg/mL; MIC (P. vulgaris): 0.25 µg/mL (≈ 0.308 µM); MIC (K. pneumoniae): 0.5 µg/mL (≈ 0.616 µM); MIC (P. mirabilis): > 64 µg/mL; MIC (E. cloacae): 0.25 µg/mL (≈ 0.308 µM); MIC (S. epidermidis): < 0.03 µg/mL; MIC (S. marcescens): > 64 µg/mL; MIC (E. faecalis): 0.5 µg/mL (≈ 0.616 µM); MIC (E. aerogenes): 0.06 µg/mL (≈ 0.0739 µM); MIC (P. aeruginosa ESBL 1): 4 µg/mL (≈ 4.93 µM); MIC (P. aeruginosa ESBL 2): 4 µg/mL (≈ 4.93 µM); MIC (A. baumannii): 1 µg/mL (≈ 1.23 µM); MIC (P. aeruginosa ΔmexAB): 0.25 µg/mL (≈ 0.308 µM); MIC E. coli WT-III [marRΔ74bp] [2]: 0.25 µg/mL (≈ 0.308 µM)
